Tests used:
[1] = Plasma radioactivity and epertinib after single oral [14C]-epertinib hydrochloride in rats; format: in vivo
Source text: We used quantitative IMS to analyze and compare the distribution of epertinib and lapatinib in brain metastasis. IMS can simultaneously detect diverse molecules and obtain spatial distribution information capable of distinguishing between a drug and its metabolites in tissue sections[21],[35]. Historically, drug metabolism and pharmacokinetic studies have used radiolabels to perform autoradiography and obtain information about tissue distribution. Previously, plasma concentrations of radioactivity and epertinib were determined after a single oral administration of [^14C]-epertinib hydrochloride at a dose of 5 mg/kg (as epertinib) in rats (Supplementary Fig. S3). […] The AUC0–12 h and AUCinf values were 126 ± 18 and 392 ± 316 ng·h/mL, respectively. The plasma epertinib/radioactivity concentration ratio ranged from 10.9% to 16.2% through the measurable points, and the AUCinf ratio was ~20.8 ± 15.0%.
Supplementa ry Figure S3. Concentration of radioactivity and epertinib in plasma after single oral administration of [14C]-epertinib hydrochloride to non-f as ti ng male rats (dose: 5 mg as epertinib /kg)
Data ar e ex pressed as the mean values + SD o f fou r animals.
(1 picture or pasted object on this page, not shown here)

[2] = target: T1, breast cancer resistance protein (BCRP) (Homo sapiens, UniProt Q9UNQ0); assay: BCRP substrate assessment; format: in vitro ADME; conditions: from permeability and efflux ratio across Caco-2 cell monolayers
T1 construct: permeability and efflux ratio of epertinib across Caco-2 cell monolayers; endogenous in cells; host or cells: Caco-2
T1 sequence (Q9UNQ0 1-655): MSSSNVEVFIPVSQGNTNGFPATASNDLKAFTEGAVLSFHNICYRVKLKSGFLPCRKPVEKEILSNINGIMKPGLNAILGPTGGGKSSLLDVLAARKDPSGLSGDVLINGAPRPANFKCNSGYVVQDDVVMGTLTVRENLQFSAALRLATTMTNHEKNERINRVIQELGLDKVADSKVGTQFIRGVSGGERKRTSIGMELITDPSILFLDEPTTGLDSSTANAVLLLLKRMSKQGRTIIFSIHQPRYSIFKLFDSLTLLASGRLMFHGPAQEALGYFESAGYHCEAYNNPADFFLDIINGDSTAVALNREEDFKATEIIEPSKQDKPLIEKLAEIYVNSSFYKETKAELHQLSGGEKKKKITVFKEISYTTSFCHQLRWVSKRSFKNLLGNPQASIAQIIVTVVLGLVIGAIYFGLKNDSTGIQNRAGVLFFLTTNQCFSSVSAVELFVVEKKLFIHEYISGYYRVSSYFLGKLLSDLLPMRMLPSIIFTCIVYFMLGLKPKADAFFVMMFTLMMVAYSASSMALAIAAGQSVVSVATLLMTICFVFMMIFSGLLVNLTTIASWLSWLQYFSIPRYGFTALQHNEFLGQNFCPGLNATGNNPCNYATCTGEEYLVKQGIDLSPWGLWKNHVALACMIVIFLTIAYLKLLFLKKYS

EGFR = tested on: EGFR; parameters: method as in PMID 24837299; conditions: cited from earlier work

Q: With `CC#CC(=NOCC1COCCN1)c1ccc2ncnc(Nc3ccc(OCc4cccc(F)c4)c(Cl)c3)c2c1` (stereo not shown) [Epertinib] as the compound, how does the “Epertinib/radioactivity AUCinf ratio” value [1] read?
A: ~ 20.8 ± 15.0%

Q: What about the AUC(0-t) ([1]; male, rat, plasma, single oral 5 mg/kg [14C]-epertinib hydrochloride, read-out: AUC0–12 h of epertinib) of the same compound?
A: 126 ± 18 ng·h/mL

Q: And the AUC(0-inf) ([1]; male, rat, plasma, single oral 5 mg/kg [14C]-epertinib hydrochloride, read-out: AUCinf of epertinib)?
A: 392 ± 316 ng·h/mL

Q: What about the Cmax ([1]; male, rat, plasma, single oral 5 mg/kg [14C]-epertinib hydrochloride, read-out: Plasma concentration of epertinib, Cmax) of the same compound?
A: 14.1 ± 3.6 ng/mL

Q: And the “Time of Cmax of plasma epertinib” value ([1]; single oral 5 mg/kg [14C]-epertinib hydrochloride)?
A: 5.00 ± 1.15 h

Q: And the BCRP substrate [2]?
A: not a substrate

Q: What about the “Off-rate of dissociation compared with lapatinib” value (EGFR) of the same compound?
A: slower off-rate of dissociation
